Results taken from patent US6713051B2, “Antiperspirant or deodorant compositions” (Unilever Home & Personal Care USA division of Conopco, Inc., priority 2001, dated 2004).

Target: T1, human PPARα (Homo sapiens, UniProt Q07869)
T1 construct: The coding region of a human PPARα cDNA was inserted downstream of the CMV promoter; expressed in transfected cells; host or cells: Cos-7 cells, transient transfection (pcDNA3.1(−)-PPARα, pRSV-RXRα, 3xPPRE-TK-luc reporter, pRL-TK)
T1 sequence (Q07869 1-468): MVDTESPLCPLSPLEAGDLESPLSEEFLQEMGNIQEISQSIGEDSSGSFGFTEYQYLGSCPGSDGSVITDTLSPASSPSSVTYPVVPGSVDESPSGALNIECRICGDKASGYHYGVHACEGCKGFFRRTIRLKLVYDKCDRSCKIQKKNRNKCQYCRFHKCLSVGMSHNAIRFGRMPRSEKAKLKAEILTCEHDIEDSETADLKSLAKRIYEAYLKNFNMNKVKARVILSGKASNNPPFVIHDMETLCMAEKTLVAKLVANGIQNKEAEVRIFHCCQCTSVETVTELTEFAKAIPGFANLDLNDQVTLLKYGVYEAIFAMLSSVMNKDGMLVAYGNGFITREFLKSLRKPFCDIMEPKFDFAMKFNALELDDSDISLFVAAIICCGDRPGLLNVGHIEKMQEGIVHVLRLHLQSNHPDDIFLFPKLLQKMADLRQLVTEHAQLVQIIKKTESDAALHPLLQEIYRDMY
T1 sequence (P19793 1-462 partner): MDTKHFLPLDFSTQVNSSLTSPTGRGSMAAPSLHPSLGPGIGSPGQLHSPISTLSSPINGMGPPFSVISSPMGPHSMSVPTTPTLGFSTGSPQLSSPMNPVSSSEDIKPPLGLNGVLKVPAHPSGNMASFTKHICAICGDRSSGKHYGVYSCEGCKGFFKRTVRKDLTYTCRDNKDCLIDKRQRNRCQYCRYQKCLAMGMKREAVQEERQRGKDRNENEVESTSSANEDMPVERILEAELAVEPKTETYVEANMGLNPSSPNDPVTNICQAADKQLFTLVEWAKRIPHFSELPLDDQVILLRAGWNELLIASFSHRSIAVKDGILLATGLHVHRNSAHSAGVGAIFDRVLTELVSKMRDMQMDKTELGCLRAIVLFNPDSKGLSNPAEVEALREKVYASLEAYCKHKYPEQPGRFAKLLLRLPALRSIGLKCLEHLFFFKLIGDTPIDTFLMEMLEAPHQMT
Experiment: PPARα reporter gene assay (firefly luciferase, transiently transfected Cos-7 cells)
Type: cell-based
Conditions: for Result (superior activity class achieved): class reached; for Pass at (lowest tested administration level at which the test material passed): pass = activation greater than oleic acid at 100 μM, commonly >1.57 times vehicle control, 24 h treatment
Source text: One convenient reporter assay for determining whether a fatty acid material is PPARα activating is based upon the firefly luciferase gene.
Fatty acids were screened to identify PPAR activating fatty acids using a reporter assay.
This assay relied on ligands binding to and activating the PPARα protein, which, in turn, activated genes under the control of PPAR response elements (PPRE). In the assay, the firefly luciferase gene was cloned behind a promoter containing 3 copies of the fatty acid binding protein PPRE.
The assay was performed by transient transfection of Cos-7 cells with a mixture of four DNA plasmids. These were:
1) PPAR reporter gene construct (Modified pNF-KB-luc reporter vector (Firefly luciferase reporter vector commercially available form Clontech (NF-kB response element, TK minimal promoter, luc^+, f1 origin, pUC origin, amp^r)). A tandem repeat of 3 PPAR response elements (PPREs) corresponding to the PPRE found in the fatty acid binding protein promoter was inserted upstream of the minimal TK promoter to replace the NF-κB response element);
2) 2) Over-expressing PPARα construct (Modified pcDNA3.1(−) vector (A mammalian expression vector commercially available from Invitrogen (CMV promoter, f1 origin, SV40 origin, ColE1 origin, neo^r, amp^r)). The coding region of a human PPARα cDNA was inserted downstream of the CMV promoter of pcDNA3.1 (−)). […] The coding region of a human RXRα cDNA has been inserted downstream of the RSV promoter. (Gift of V. K. K. Chatterjee, Addenbrooke's Hospital, Cambridge)) 4) Control luciferase construct (pRL-TK Renilla luciferase reporter vector commercially available from Promega (HSV-TK promoter, T7 promoter, Rluc^+, ori, amp^r)). For the transfection, DNA was made up as a mix of PPAR reporter gene: PPARα: RXRα: control in the ratio 40:4:3:3.
Cos-7 cells were grown in Dulbecco's modified Eagle's Medium, also herein referred to as DMEM with 10% foetal calf serum, herein also referred to as FCS at 37° C., 5% CO2 to 80% confluency. Cells were then plated out in 24 well plates at 50,000 cells per well and incubated overnight in DMEM with 10% FCS at 37° C., 5% CO2. Cells were then transfected using the LipofectAMINE reagent (GibcoBRL). For each well 0.4 μg of DNA mix (in 25 μl of DMEM) was incubated with 1 μl LipofectAMINE (in 25 μl of DMEM) for 45 minutes. The mixture was then made up to 250 μl per well and added to the cells, which had been washed with 1 ml of DMEM. Cells were then incubated for 5 hours at 37° C., 5% CO2 and 250 μl DMEM with 10% SBCS (charcoal stripped bovine calf serum) added. Cells were incubated for 18 hours at 37° C., 5% CO2 before being treated with the appropriate compound/extract. Test compounds were made up as 1000× stocks (in DMSO or ethanol as appropriate) and diluted into DMEM with 10% SBCS (500 μl per well) immediately before being added to cells. Each treatment was performed in triplicate. The transfection mix was removed from the cells and replaced with the treatment mix, and incubated for 24 hours at 37° C., 5% CO2. Cells were washed with 1 ml of PBS (without calcium or magnesium) and then lysed with 100 μl per well of 1× Passive Lysis Buffer (as supplied with Promega Dual Luciferase assay kit). Lysis was allowed to continue for 15 minutes and then the lysate was assayed for Firefly and Renilla luciferase activity using the Promega Dual Luciferase assay kit. For the assay, 20 μl of lysate was taken and assayed as described in the kit instructions using a MLX microtiter™ plate luminometer (Dynex).
Firefly luciferase activity (PPAR driven) was normalised against the Renilla luciferase value for that well and the mean calculated for the three wells treated with the same agent. Activity was then expressed as fold activation over the vehicle (DMSO or ethanol) control values for that particular plate.

| SMILES | Result at (lowest administration level at which super or MS activity was achieved) [μm] | Pass at (lowest tested administration level at which the test material passed) [μm] | Result (superior activity class achieved) | PPARα activation compared with the vehicle control (100 μM, base-line) |
| --- | --- | --- | --- | --- |
| CCCCCCC(O)CCCCCCCCCCC(=O)O (centres unmarked) [12-hydroxystearic acid] | 25 | 10 | MS (more superior activity [MS] (100% higher—at least 3 times PPARα activation)) | – |
| CCCCC/C=C\C/C=C\C/C=C\C/C=C\CCCC(=O)O [Arachidonic acid] | – | 25 | – | – |
| CCCCCC/C=C/C=C/CCCCCCCC(=O)O [CLA (t9, t11)] | 100 | 50 | MS (more superior activity [MS] (100% higher—at least 3 times PPARα activation)) | – |
| CCCCC/C=C\C/C=C\CC/C=C/CCCC(=O)O [Columbinic acid, columbinic acid] | 25 | 10 | super (superior activity [super] (50% higher—at least 2.25 times PPARα activation)) | – |
| CCCCCCCC/C=C/CCCCCCCC(=O)O [Elaidic acid] | – | 100 | – | – |
| CCCCC/C=C\C/C=C\CCCCCCCC(=O)O [Linoleic acid] | 100 | 10 | super (superior activity [super] (50% higher—at least 2.25 times PPARα activation)) | – |
| CCCCC/C=C/C/C=C/CCCCCCCC(=O)O [Linolelaidic acid] | – | 25 | – | – |
| CC/C=C/C/C=C/C/C=C/CCCCCCCC(=O)O [Linolenelaidic acid, linolenelaidic acid] | 25 | 25 | super (superior activity [super] (50% higher—at least 2.25 times PPARα activation)) | – |
| CCCCCCCC/C=C\CCCCCCCC(=O)O [Oleic acid, reference compound] | – | – | – | Base-line Oleic acid (1.57 at 100 μM) times |
| CCCCCC/C=C\CCCCCCCC(=O)O [Palmitoleic acid] | – | 50 | – | – |
| CCCCCCCCCCC/C=C/CCCCC(=O)O [Petroselaidic acid] | 100 | 50 | super (superior activity [super] (50% higher—at least 2.25 times PPARα activation)) | – |
| CCCC\C=C/C=C/C=C\CCCCCCCC(=O)O [Punicic acid, punicic acid] | – | 25 | – | – |
| CCCCCC[C@@H](O)C/C=C/CCCCCCCC(=O)O [Ricinolaidic acid, ricinolaidic acid] | 25 | 10 | MS (more superior activity [MS] (100% higher—at least 3 times PPARα activation)) | – |

The next lines start with results.

| Result at (lowest administration level at which super or MS activity was achieved) [μm] | Pass at (lowest tested administration level at which the test material passed) [μm] | SMILES | Result (superior activity class achieved) | PPARα activation compared with the vehicle control (100 μM, base-line) |
| --- | --- | --- | --- | --- |
| – | 10 | CCCCCC[C@@H](O)C/C=C\CCCCCCCC(=O)O [Ricinoleic acid, ricinoleic acid] | – | – |
| 25 | 25 | CC/C=C\C/C=C\C/C=C\C/C=C\CCCCC(=O)O [Stearidonic/octadecatetraenoic acid, stearidonic acid] | super (superior activity [super] (50% higher—at least 2.25 times PPARα activation)) | – |
| – | 10 | CCCCCCCCC#CCCCCCCCC(=O)O [Stearolic acid] | – | – |
| 10 | 10 | CCCCCCCCCC/C=C/CCCCCC(=O)O [Trans-7-octadecenoic acid] | MS (more superior activity [MS] (100% higher—at least 3 times PPARα activation)) | – |
| – | 10 | CCCC/C=C/CCCCCCCCCCCC(=O)O [Trans-13-octadecenoic acid] | – | – |
| 100 | 10 | Cc1cccc(Nc2cc(Cl)nc(SCC(=O)O)n2)c1C [WY14,643, reference compound] | super (superior activity [super] (50% higher—at least 2.25 times PPARα activation)) | – |
| – | 10 | CCCCCC=CC/C=C\CCCCCCCCCCCC(=O)O [cis 13,16 docosadienoic acid] | – | – |
| – | 10 | CCC=CCC=CCC=CCC=CCC=CC/C=C\CCC(=O)O [cis-4,7,10,13,16,19 docosahexenoic acid] | – | – |
| 100 | 10 | CCCCCCCCCCCCCC/C=C\CCCC(=O)O [cis-5 eicosenoic acid] | MS (more superior activity [MS] (100% higher—at least 3 times PPARα activation)) | – |
| 100 | 100 | CCCCCC=CCC=CCC=CC/C=C\CCCCCC(=O)O [cis-7,10,13,16 docosatetraenoic acid] | super (superior activity [super] (50% higher—at least 2.25 times PPARα activation)) | – |
